How the values were obtained:
[1] = test system: HCC-1187 breast cancer xenografts; test: HCC-1187 breast cancer xenografts in nude mice, tumour volume by calipers; assay type: in vivo; conditions: for efficacy of combination versus docetaxel monotherapy: AZD5363 300 mg/kg once daily, 4 days on, 3 days off, 3 weekly cycles
Protocol: In these experiments the indicated agent(s) where being administered in 2 weekly dosage cycles, then there was no dosing in the 3rd week (days 15-21 inclusive). The indicated agent(s) were again administered in further weekly dosage cycles from week 4 onwards.
Animals were dosed with compounds over a 3 week period (3 weekly cycles of docetaxel and 3 weekly cycles of AZD5363 300 mg/kg once daily, 4 days on, 3 days off). […] Following the 3 weekly cycles of treatment, animals were not treated with compound, and recovery of tumour growth was monitored.
(§1) Tumour cells were implanted subcutaneously into the flank of nude mice, then a tumour was allowed to grow in each mouse until it reached the desired starting volume for the particular experiment (approximately 0.6 cm^3 for the BT474c experiment, and approximately 0.15 cm^3 for the HCC-1187 experiment). The mice were then randomised into groups—each group destined to receive one of the four treatment regimes described in each of FIGS. 1 and 2. The mice were then dosed as described in FIGS. 1 and 2, where docetaxel was administered intravenously, and Compound (I) (as the free base) was administered orally. Calipers were used to monitor tumour sizes during these experiments, and the results are plotted on the graphs of FIGS. 1 and 2.
(§2) The BT-474 tumour cell line (human mammary carcinoma) was obtained from Dr Jose Baselga (at Laboratorio Recerca Oncologica, Paseo Vall D'Hebron 119-129, Barcelona 08035, Spain). This cell line was subcloned and a certain population referred herein to as BT474c was obtained. The HCC-1187 cell line is available from ATCC (www.atcc.org).

BT474c model = test: BT474c tumour xenograft in nude mice, tumour volume by calipers; assay type: in vivo
Protocol: as §1, §2

Question: How did the “antitumour activity, intermittent versus continuous schedule of Compound (I)” value ([1]; FIG. 2, HCC-1187 model, 55-day period, in combination with weekly cycles of docetaxel) turn out when `NC1(C(=O)N[C@@H](CCO)c2ccc(Cl)cc2)CCN(c2ncnc3[nH]ccc23)CC1` [Compound (I), (S)-4-amino-N-(1-(4-chlorophenyl)-3-hydroxypropyl)-1-(7H-pyrrolo[2,3-d]pyrimidin-4-yl)piperidine-4-carboxamide] was run?
Answer: The value was “similarly sustained antitumour activity”.

Question: And the “efficacy of combination versus docetaxel monotherapy” value ([1]; FIG. 3, docetaxel administered 24 hours after the final dose of AZD5363)?
Answer: Its value is “antagonistic”.

Question: What about the “efficacy of combination versus docetaxel monotherapy” value ([1]; FIG. 3, docetaxel dosed 1 hour (same day) before first administration of AZD5363) of the same compound?
Answer: Its value is “greater efficacy than docetaxel monotherapy”.

Question: And the “efficacy of combination versus docetaxel monotherapy” value ([1]; FIG. 3, docetaxel dosed 24 hours (day before) before first administration of AZD5363)?
Answer: Its value is “greater efficacy than docetaxel monotherapy”.

Question: And the “tumour growth delay after the 3 weekly cycles of treatment” value ([1]; FIG. 3, docetaxel administered 1 hour before AZD5363, compared with the other schedules investigated)?
Answer: Its value is “longest tumour growth delay”.

Question: What about the sensitisation to docetaxel (BT474c model; BT474c model, single dose of docetaxel) of the same compound?
Answer: The sensitisation to docetaxel was “greatly sensitise”.

Question: And the “effect at regulating tumour volume, combination compared with either component alone” value (BT474c model; Compound (I) in combination with docetaxel)?
Answer: The value was “more than an additive effect”.

Question: What about the “change in tumour volume” value (BT474c model; FIG. 1, BT474c model, 16-day period, Compound (I) free base orally in combination with docetaxel intravenously) of the same compound?
Answer: Its value is “significant tumour shrinkage”.

Reference: patent US9402847B2, “Combinations comprising (S)-4-amino-N-(1-(4-chlorophenyl)-3-hydroxypropyl)-1-(7H-pyrrolo[2,3-d]pyrimidin-4-yl)piperidine-4-carboxamide” (AstraZeneca AB, priority 2011, dated 2016)
